Patent publication US5696112A, “Fused heterocyclic azepines as vasopressin antagonists” (American Cyanamid Company, priority 1995, dated 1997)

Assays:
Vasopressin V2 = Vasopressin V2 Antagonist Activity in Conscious Hydrated Rats; assay type: in vivo, rat; details: AVP 0.4 μg/kg i.p.
Procedure: Vasopressin V2 Antagonist Activity in conscious Hydrated Rats Conscious hydrated rats are treated with compounds under study from 0.1 to 100 mg/kg orally or vehicle. Two to four rats are used for each compound. One hour later, arginine vasopressin (AVP, antidiuretic hormone, ADH) dissolved in peanut oil is administered at 0.4 μg/kg intraperitoneally. Two rats in each test would not receive arginine vasopressin but only the vehicle (peanut oil) to serve as water-loading control. Twenty minutes later each rat is given 30 mL/kg of deionized water orally by gavage and is placed individually in a metabolic cage equipped with a funnel and a graduated glass cylinder to collect urine for four hours. Urine volume is measured and osmolality analyzed by use of a Fiske One-Ten osmometer (Fiske Assoc., Norwood, Mass. USA). Urinary sodium, potassium, and chloride are analyzed by use of ion-specific electrodes in a Beckman E3 (Electrolyte 3) Analyzer. In the following results, […] and […] osmolality relative to AVP-control indicates activity.

[1] = target: T1, Human V2 Vasopressin Receptor (Homo sapiens, UniProt P30518); assay: Binding to Membranes of Mouse Fibroblast Cell Line (LV-2) Transfected with the cDNA Expressing the Human V2 Receptor; details: LV-2 cell membranes
T1 construct: expressed in transfected cells; host or cells: mouse fibroblast cell line LV-2
T1 sequence (P30518 whole entry): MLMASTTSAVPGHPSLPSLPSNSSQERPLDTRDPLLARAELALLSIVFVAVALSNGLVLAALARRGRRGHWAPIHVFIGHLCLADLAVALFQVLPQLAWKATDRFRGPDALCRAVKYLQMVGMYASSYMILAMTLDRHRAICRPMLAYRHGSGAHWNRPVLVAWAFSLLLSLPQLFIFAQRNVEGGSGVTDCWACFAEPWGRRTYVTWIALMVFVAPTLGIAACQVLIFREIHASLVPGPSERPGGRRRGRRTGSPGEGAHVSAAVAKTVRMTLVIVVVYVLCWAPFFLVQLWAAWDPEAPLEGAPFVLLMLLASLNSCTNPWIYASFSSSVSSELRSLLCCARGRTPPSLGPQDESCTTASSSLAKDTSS
Procedure: Binding to Membranes Of Mouse Fibroblast Cell Line (LV-2) Transfected with the cDNA expressing the Human V2 Vasopressin Receptor
Flasks of 175 ml capacity, containing attached cells grown to confluence are cleared of culture medium by aspiration. The flasks containing the attached cells are rinsed with 2×5 ml of phosphate buffered saline (PBS) and the liquid aspirated off each time. Finally, 5 ml of an enzyme free dissociation Hank's based solution (Specialty Media, Inc., Lafayette, N.J.) is added and the flasks are left undisturbed for 2 min. The content of all flasks is poured into a centrifuge tube and the cells pelleted at 300×g for 15 min. The Hank's based solution is aspirated off and the cells homo-genized with a polytron at setting #6 for 10 sec in 10.0 mM Tris.HCl buffer, pH 7.4 containing 0.25M sucrose and 1.0 mM EDTA. The homogenate is centrifuged at 1500×g for 10 min to remove ghost membranes. The supernatant fluid is centrifuged at 100,000×g for 60 min to pellet the receptor protein. Upon completion, the pellet is resuspended in a small volume of 50.0 mM Tris.HCl buffer, pH 7.4. The protein content is determined by the Lowry method and the receptor membranes are suspended in 50.0 mM Tris.HCl buffer containing 0.1 mM phenylmethylsulfonylfluoride (PMSF) and 0.2% bovine serum albumin (BSA) to give 2.5 mg receptor protein per ml of suspension.
For binding experiments, the following is added in μl volume to wells of a 96 well format of a microtiter plate: 100.0 μl of 100.0 mM Tris.HCl buffer containing 0.2% heat inactivated BSA, 10.0 mM MgCl2 and a mixture of protease inhibitors: leupeptin, 1.0 mg %; aprotinin, 1.0 mg %; 1,10-phenanthroline, 2.0 mg %; trypsin inhibitor, 10.0 mg % and 0.1 mM PMSF, 20.0 μl of [^3 H]Arginine^8, vasopressin (S.A. 75.0 Ci/mmole) at 0.8 nM and the reaction initiated by the addition of 80.0 μl of tissue membranes (200.0 μg tissue protein). The plates are left undisturbed on the bench top for 120 min to reach equilbrium. Non-specific binding is assessed in the presence of 1.0 μM of unlabeled ligand, added in 20 μl volume. For test compounds, these are solubilized in 50% dimethylsulfoxide (DMSO) and added in 20.0 μl volume to a final incubation volume of 200 μl . Upon completion of binding, the content of each well is filtered off, using a Brandel® cell Harvester (Gaithersburg, Md.). The radioactivity trapped on the filter disk by the ligand-receptor complex is assessed by liquid scintillation counting in a Packard LS Counter, with an efficiency of 65% for tritium. The data are analyzed for IC50 values by the LUNDON-2 program for competition (LUNDON SOFTWARE, OH).

[2] = target: T2, Rat Kidney Medullary V2 Receptors (vasopressin V2) (Rattus norvegicus, UniProt Q00788); assay: Binding Assay to Rat Kidney Medullary V2 Receptors; details: rat kidney medullary V2, [3H]Arg8-vasopressin
T2 construct: Medullary tissues from rat kidneys are dissected out; from tissue; host or cells: rat kidney medulla membranes
T2 sequence (Q00788 whole entry): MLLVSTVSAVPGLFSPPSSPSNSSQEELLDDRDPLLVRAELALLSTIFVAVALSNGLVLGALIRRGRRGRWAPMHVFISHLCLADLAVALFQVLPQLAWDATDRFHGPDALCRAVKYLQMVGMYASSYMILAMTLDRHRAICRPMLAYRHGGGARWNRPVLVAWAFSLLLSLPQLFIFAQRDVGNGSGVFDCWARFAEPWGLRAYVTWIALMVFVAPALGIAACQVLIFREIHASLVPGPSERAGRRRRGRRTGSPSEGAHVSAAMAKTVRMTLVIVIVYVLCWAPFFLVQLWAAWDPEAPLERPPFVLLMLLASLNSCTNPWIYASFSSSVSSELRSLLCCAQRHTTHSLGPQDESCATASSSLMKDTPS
Outline: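 Membranes from rat kidney medulla (200 μg protein) were equilibrated for 120 min on the bench with [3H]arginine8-vasopressin, added as a 0.8 nM solution, in Tris-HCl containing MgCl2, heat-inactivated BSA and protease inhibitors. Compounds were dissolved in 50% DMSO, and 1.0 μM unlabeled ligand gave nonspecific binding. Filtration, scintillation counting and competition analysis gave IC50.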

IC50 [1] [µM]	IC50 [2] [µM]	SMILES	Osmolality (Vasopressin V2; 10 mg/kg P.O.) [mOsm/kg]	Urine Volume (Vasopressin V2; 10 mg/kg P.O.) [ml/4 hours]	Osmolality (Vasopressin V2; 30 mg/kg P.O.) [mOsm/kg]	Urine Volume (Vasopressin V2; 30 mg/kg P.O.) [ml/4 hours]
0.0034	–	Cc1ccc(F)cc1C(=O)Nc1ccc(C(=O)N2CCCCc3sccc32)c(Cl)c1 [Example 70, N-[4-[(5,6,7,8-Tetrahydro-4H-thieno[3,2-b]azepin-4-yl)carbonyl]-3-chlorophenyl]-5-fluoro-2-methylbenzamide]	1070	4	–	–
–	0.01	Cc1ccccc1C(=O)Nc1ccc(C(=O)N2CCCCc3sc(Cl)cc32)cc1 [Example 96, N-[4-[(2-Chloro-5,6,7,8-tetrahydro-4H-thieno[3,2-b]azepin-4-yl)carbonyl]phenyl]-2-methylbenzamide]	–	–	465	16.1
–	0.01	Cc1c(F)cccc1C(=O)Nc1ccc(C(=O)N2CCCCc3sc(Cl)cc32)cc1 [Example 94, N-[4-[(2-Chloro-5,6,7,8-tetrahydro-4H-thieno[3,2-b]azepin-4-yl)carbonyl]phenyl]-3-fluoro-2-methylbenzamide]	910	8.8	–	–
–	0.25	Cc1ccccc1C(=O)Nc1ccc(C(=O)N2CCCC(=O)c3sccc32)cc1 [Example 157, N-[4-[(5,6,7,8-Tetrahydro-8-oxo-4H-thieno[3,2-b]azepin-4-yl)carbonyl]-phenyl]-2-methylbenzamide]	1070	6.5	–	–
0.0022	–	O=C(Nc1ccc(C(=O)N2CCCCc3sccc32)c(Cl)c1)c1ccc(F)cc1Cl [Example 183]	512	8.3	–	–
–	0.25	Cc1c(F)cccc1C(=O)Nc1ccc(C(=O)N2CCCC(=O)c3sccc32)cc1 [Example 155, N-[4-[(5,6,7,8-Tetrahydro-8-oxo-4H-thieno[3,2-b]azepine-4-yl)carbonyl]phenyl]-3-fluoro-2-methylbenzamide]	1053	4.5	–	–
0.004	–	O=C(Nc1ccc(C(=O)N2CCCCc3sc(Cl)cc32)cc1)c1c(Cl)cccc1Cl [Example 95, N-[4-[(2-Chloro-5,6,7,8-tetrahydro-4H-thieno[3,2-b]azepin-4-yl)carbonyl]phenyl]-2,6-dichlorobenzamide]	1122	5	–	–
–	0.019	O=C(Nc1ccc(C(=O)N2CCCCc3sc(Cl)cc32)cc1)c1ccc(Cl)cc1Cl [Example 93, 2,4-Dichloro-N-[4-[(2-chloro-5,6,7,8-tetrahydro-4H-thieno[3,2-b]azepin-4-yl)carbonyl]phenyl]benzamide]	1056	7.6	–	–
0.022	–	O=C(Nc1ccc(C(=O)N2CCCCc3sccc32)c(Cl)c1)c1ccc(Cl)cc1Cl [Example 68, N-[4-[(5,6,7,8-Tetrahydro-4H-thieno[3,2-b]azepin-4-yl)carbonyl]-3-chlorophenyl]-2,4-dichlorobenzamide]	647	10.3	–	–
–	0.01	Cc1ccccc1CC(=O)Nc1ccc(C(=O)N2CCCCc3sccc32)cc1 [Example 13, N-[4-[(5,6,7,8-Tetrahydro-4H-thieno[3,2-b]azepin-4-yl)carbonyl]phenyl]2-methylbenzeneacetamide]	–	–	516	9.5
–	0.33	O=C(Nc1ccc(C(=O)N2CCCC(=O)c3sccc32)cc1)c1ccc(Cl)cc1Cl [Example 156, N-[4-[(5,6,7,8-Tetrahydro-8-oxo-4H-thieno[3,2-b]azepin-4-yl)carbonyl]-phenyl]-2,4-dichlorobenzamide]	1266	3.8	–	–
–	0.034	O=C(Nc1ccc(C(=O)N2CCCCc3sccc32)cc1)c1cc(Cl)ccc1Cl [Example 9, N-[4-[(5,6,7,8-Tetrahydro-4H-thieno[3,2-b]azepin-4-yl)carbonyl]phenyl]2,5-dichlorobenzamide]	–	–	–	–
